Key:
PDEV = PDEV (UniProt O76074); assay: Cyclic nucleotide phosphodiesterase (PDE) assay, measurement of inhibition of PDEV; format: biochemical, rabbit or human; settings: PDEV isolated from rabbit and human tissues; 1 μM cGMP, 10% DMSO, 30° C., 30 minutes
Description: Cyclic Nucleotide Phosphodiesterase (PDE) Assay
PDEV was isolated from rabbit and human tissues according to the protocol described by Boolell et al. (Boolell, M., Allen, M. J., Ballard, S. A., Ge[o-Attee, S., Muirhead, G. J., Naylor, A. M., Osterdoh, I. H., and Gingell, C) in International Journal of Impotence Research 1996 8, 47-52 with minor modifications.
Briefly, rabbit or human tissues were homogenized in an ice-cold buffer solution containing 20 mM HEPES (pH 7.2), 0.25M sucrose, 1 mM EDTA, and 1 mM phenylmethylsulphonyl fluoride (PMSF). The homogenates were centrifuged at 100,000 g for 60 minutes at 4° C. The supernatant was filtered through […] filter and loaded on a Pharmacia Mono Q anion exchange column (1 ml bed volume) that was equilibrated with 20 mM HEPES, 1 mM EDTA and 0.5 mM PMSF. After washing out unbound proteins, the enzymes were eluted with a linear gradient of 100-600 mM NaCl in the same buffer (35 to 50 ml total, depending on the tissue. Enzymes from the skeletal muscle, corpus cavernosum, retina, heart and platelet were eluted with 35, 40, 45, 50, and 50 ml respectively.) The column was run at a flow rate of 1 ml/min and 1 ml fractions were collected. […]
The assays were adapted to a 96-well format. […] An aliquot of 200 μl was taken and counted by liquid scintillation. PDE activity was expressed as pmol cyclic nucleotide hydrolyzed/min/ml of enzyme preparation. […]

men who suffer from ED = settings: cited from earlier work

IC50 (PDEV) [nM]	Structure (SMILES)	improved sexual function, share of men (men who suffer from ED; men who suffer from ED of psychogenic or organic etiology, clinical studies)	improved erections, share of patients (men who suffer from ED; patients who had undergone a radical prostatectomy, versus 15% on placebo) [%]	undesirable side effects (men who suffer from ED; use of sildenafil, result from non-selective effects on a variety of tissues)
299	O=c1c2ccccc2[nH]c2c(-c3ccc4c(c3)OCO4)n(Cc3ccccc3)cc12 [Compound 2]	–	–	–
545	O=C1c2ccccc2NC23OC12CN(Cc1ccccc1)C3c1ccc2c(c1)OCO2 (centres unmarked) [Compound 1]	–	–	–
–	CCCc1nn(C)c2c(=O)[nH]c(-c3cc(S(=O)(=O)N4CCN(C)CC4)ccc3OCC)nc12 [sildenafil, 5-[2-ethoxy-5-(4-methylpiperazin-1-ylsulphonyl)phenyl]-1-methyl-3-n-propyl-6,7-dihydro-1H-pyrazolo[4,3-d]pyrimidin-7-one]	about 70%	43	headache, flushing and disrupted color vision
